Results taken from PubChem BioAssay (NCI).
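Here, GI50 denotes the concentration required for 50% inhibition of growth. TGI denotes the concentration required for complete inhibition of growth.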

Legend:
Experiment in all cases: NCI tumour cell line growth inhibition, 384-well format
[1] = tested on: A549 NSCLC
[2] = tested on: BT-549 breast
[3] = tested on: CAKI-1 renal
[4] = tested on: CCRF-CEM leukemia
[5] = tested on: COLO 205 colon
[6] = tested on: DU-145 prostate
[7] = tested on: EKVX NSCLC
[8] = tested on: HCC-2998 colon
[9] = tested on: HCT-116 colon
[10] = tested on: HCT-15 colon
[11] = tested on: HL-60(TB) leukemia
[12] = tested on: HOP-62 NSCLC
[13] = tested on: HOP-92 NSCLC
[14] = tested on: HS 578T breast
[15] = tested on: HT29 colon
[16] = tested on: IGROV1 ovarian
[17] = tested on: K-562 leukemia
[18] = tested on: LOX IMVI melanoma
[19] = tested on: M14 melanoma
[20] = tested on: MALME-3M melanoma
[21] = tested on: MCF7 breast
[22] = tested on: MDA-MB-435 melanoma
[23] = tested on: MDA-MB-468 breast
[24] = tested on: MOLT-4 leukemia
[25] = tested on: NCI-H226 lung
[26] = tested on: NCI-H322M lung
[27] = tested on: NCI-H460 NSCLC
[28] = tested on: NCI-H522 lung
[29] = tested on: OVCAR-3 ovarian
[30] = tested on: OVCAR-4 ovarian
[31] = tested on: OVCAR-5 ovarian
[32] = tested on: PC-3 prostate
[33] = tested on: RPMI-8226 leukemia
[34] = tested on: SK-MEL-2 melanoma
[35] = tested on: SK-MEL-28 melanoma
[36] = tested on: SK-MEL-5 melanoma
[37] = tested on: SK-OV-3 ovarian
[38] = tested on: SN12C renal
[39] = tested on: SNB-19 CNS
[40] = tested on: SNB-75 CNS
[41] = tested on: SR leukemia
[42] = tested on: SW-620 colon
[43] = tested on: T-47D breast
[44] = tested on: TK-10 renal
[45] = tested on: U251 glioblastoma
[46] = tested on: UACC-257 melanoma
[47] = tested on: UACC-62 melanoma

Question: With C1=C/COCc2cc(ccc2OCCN2CCCC2)Nc2nccc(n2)-c2cccc(c2)COC/1 as the molecule, how does the GI50 [1] read?
Answer: 1460 nM

Question: And the TGI [1]?
Answer: 3490 nM

Question: What about the GI50 [2] of the same molecule?
Answer: 1790 nM

Question: What about the TGI [2] of the same molecule?
Answer: 3200 nM

Question: And the GI50 [3]?
Answer: 428 nM

Question: And the TGI [3]?
Answer: 1710 nM

Question: And the GI50 [4]?
Answer: 705 nM

Question: What about the TGI [4] of the same molecule?
Answer: 1790 nM

Question: And the GI50 [5]?
Answer: 1090 nM

Question: What about the TGI [5] of the same molecule?
Answer: 2470 nM

Question: And the GI50 [6]?
Answer: 1060 nM

Question: And the TGI [6]?
Answer: 3430 nM

Question: What about the GI50 [7] of the same molecule?
Answer: 1560 nM

Question: And the TGI [7]?
Answer: 3370 nM

Question: And the GI50 [8]?
Answer: 1350 nM

Question: What about the TGI [8] of the same molecule?
Answer: 2720 nM

Question: What about the GI50 [9] of the same molecule?
Answer: 692 nM

Question: And the TGI [9]?
Answer: 2360 nM

Question: And the GI50 [10]?
Answer: 802 nM

Question: And the TGI [10]?
Answer: 2310 nM

Question: And the GI50 [11]?
Answer: 251 nM

Question: What about the TGI [11] of the same molecule?
Answer: 684 nM

Question: And the GI50 [12]?
Answer: 1400 nM

Question: And the TGI [12]?
Answer: 3030 nM

Question: And the GI50 [13]?
Answer: 1600 nM

Question: And the TGI [13]?
Answer: 3910 nM

Question: What about the GI50 [14] of the same molecule?
Answer: 1360 nM

Question: And the TGI [14]?
Answer: 2670 nM

Question: And the GI50 [15]?
Answer: 1340 nM

Question: What about the TGI [15] of the same molecule?
Answer: 2670 nM

Question: And the GI50 [16]?
Answer: 811 nM

Question: What about the TGI [16] of the same molecule?
Answer: 2940 nM

Question: And the GI50 [17]?
Answer: 789 nM

Question: What about the TGI [17] of the same molecule?
Answer: 2140 nM

Question: And the GI50 [18]?
Answer: 842 nM

Question: And the TGI [18]?
Answer: 2080 nM

Question: What about the GI50 [19] of the same molecule?
Answer: 1160 nM

Question: And the TGI [19]?
Answer: 2390 nM

Question: What about the GI50 [20] of the same molecule?
Answer: 829 nM

Question: What about the TGI [20] of the same molecule?
Answer: 2020 nM

Question: And the GI50 [21]?
Answer: 521 nM

Question: And the TGI [21]?
Answer: 1780 nM

Question: What about the GI50 [22] of the same molecule?
Answer: 1320 nM

Question: What about the TGI [22] of the same molecule?
Answer: 2730 nM

Question: And the GI50 [23]?
Answer: 1660 nM

Question: And the TGI [23]?
Answer: 3030 nM

Question: And the GI50 [24]?
Answer: 563 nM

Question: What about the TGI [24] of the same molecule?
Answer: 1290 nM

Question: What about the GI50 [25] of the same molecule?
Answer: 1140 nM

Question: What about the TGI [25] of the same molecule?
Answer: 2600 nM

Question: What about the GI50 [26] of the same molecule?
Answer: 1010 nM

Question: And the TGI [26]?
Answer: 2470 nM

Question: What about the GI50 [27] of the same molecule?
Answer: 923 nM

Question: And the TGI [27]?
Answer: 2220 nM

Question: And the GI50 [28]?
Answer: 1450 nM

Question: And the TGI [28]?
Answer: 2780 nM

Question: And the GI50 [29]?
Answer: 988 nM

Question: What about the TGI [29] of the same molecule?
Answer: 2270 nM

Question: What about the GI50 [30] of the same molecule?
Answer: 1760 nM

Question: What about the TGI [30] of the same molecule?
Answer: 3610 nM

Question: What about the GI50 [31] of the same molecule?
Answer: 778 nM

Question: And the TGI [31]?
Answer: 2640 nM

Question: And the GI50 [32]?
Answer: 1270 nM

Question: And the TGI [32]?
Answer: 3250 nM

Question: And the GI50 [33]?
Answer: 1660 nM

Question: What about the TGI [33] of the same molecule?
Answer: 3030 nM

Question: What about the GI50 [34] of the same molecule?
Answer: 625 nM

Question: What about the TGI [34] of the same molecule?
Answer: 1790 nM

Question: What about the GI50 [35] of the same molecule?
Answer: 1190 nM

Question: What about the TGI [35] of the same molecule?
Answer: 2440 nM

Question: And the GI50 [36]?
Answer: 1450 nM

Question: And the TGI [36]?
Answer: 2770 nM

Question: And the GI50 [37]?
Answer: 888 nM

Question: What about the TGI [37] of the same molecule?
Answer: 2350 nM

Question: And the GI50 [38]?
Answer: 704 nM

Question: What about the TGI [38] of the same molecule?
Answer: 2010 nM

Question: What about the GI50 [39] of the same molecule?
Answer: 2330 nM

Question: What about the TGI [39] of the same molecule?
Answer: 6910 nM

Question: What about the GI50 [40] of the same molecule?
Answer: 1610 nM

Question: What about the TGI [40] of the same molecule?
Answer: 2980 nM

Question: What about the GI50 [41] of the same molecule?
Answer: 152 nM

Question: What about the TGI [41] of the same molecule?
Answer: 303 nM

Question: What about the GI50 [42] of the same molecule?
Answer: 1520 nM

Question: What about the TGI [42] of the same molecule?
Answer: 3400 nM

Question: What about the GI50 [43] of the same molecule?
Answer: 1270 nM

Question: And the TGI [43]?
Answer: 2670 nM

Question: What about the GI50 [44] of the same molecule?
Answer: 1330 nM

Question: And the TGI [44]?
Answer: 3560 nM

Question: And the GI50 [45]?
Answer: 1540 nM

Question: What about the TGI [45] of the same molecule?
Answer: 3290 nM

Question: And the GI50 [46]?
Answer: 649 nM

Question: What about the TGI [46] of the same molecule?
Answer: 1410 nM

Question: What about the GI50 [47] of the same molecule?
Answer: 685 nM

Question: What about the TGI [47] of the same molecule?
Answer: 1920 nM
